According to ChEMBL document CHEMBL3875185, “Structure-anticonvulsant activity studies in the group of (E)-N-cinnamoyl aminoalkanols derivatives monosubstituted in phenyl ring with 4-Cl, 4-CH3 or 2-CH3” (Bioorg Med Chem, 2017):
Calls of active or inactive are those of the source. The rule behind the calls is not given here.

Tests used:
Mus musculus [1] = assay: Anticonvulsant activity in pentylenetetrazole induced seizure mouse model assessed as no observable episode of clonic convulsion of at least 5 secs at 300 mg/kg, ip measured at 0.5 hrs post dose; format: functional, organism-based
Mus musculus [2] = assay: Anticonvulsant activity in 6-Hz induced seizure mouse model assessed as restoration of normal activity within 10 secs from stimulation at 100 mg/kg, ip at 32 mA measured at 0.5 hrs post dose; format: functional, organism-based
Rattus norvegicus [3] = assay: Neurotoxicity in Sprague-Dawley rat assessed as behavioral change at 30 mg/kg, po measured at 0.5 hrs post dose; format: toxicity, organism-based; conditions: in vivo
Rattus norvegicus [4] = assay: Neurotoxicity in Sprague-Dawley rat assessed as behavioral change at 30 mg/kg, po measured at 2 hrs post dose; format: toxicity, organism-based; conditions: in vivo
Mus musculus [5] = assay: Anticonvulsant activity in ip dosed pentylenetetrazole induced seizure mouse model assessed as no observable episode of clonic convulsion of at least 5 secs by measuring time to peak effect; format: functional
Mus musculus [6] = assay: Anticonvulsant activity in ip dosed pentylenetetrazole induced seizure mouse model assessed as no observable episode of clonic convulsion of at least 5 secs; format: functional
[7] = Protection index, ratio of TD50 for neurotoxicity in ip dosed mouse to ED50 for ip dosed 6-Hz induced seizure mouse model at 32 mA; format: toxicity, organism-based; conditions: in vivo, read-out: Ratio TD50/ED50
[8] = Protection index, ratio of TD50 for neurotoxicity in ip dosed mouse to ED50 for ip dosed 6-Hz induced seizure mouse model at 44 mA; format: toxicity, organism-based; conditions: in vivo, read-out: Ratio TD50/ED50
Rattus norvegicus [9] = assay: Anticonvulsant activity in po dosed maximal electroshock induced seizure Sprague-Dawley rat model assessed as suppression in hindlimb tonic extension; format: functional
[10] = Neurotoxicity in ip dosed Sprague-Dawley rat assessed as behavioral change; format: toxicity, organism-based; conditions: in vivo
[11] = Protection index, ratio of TD50 for neurotoxicity in ip dosed Sprague-Dawley rat model to ED50 for ip dosed maximal electroshock induced seizure Sprague-Dawley rat model; format: toxicity, organism-based; conditions: in vivo, read-out: Ratio TD50/ED50
[12] = target: Adenosine receptor A2a (Homo sapiens) (UniProt P29274); assay: Displacement of [3H]CGS 21680 from human recombinant adenosine receptor A2A expressed in HEK293 cells at 100 uM measured after 120 mins by scintillation counting method relative to control; format: cell-based
[13] = target: Translocator protein (Rattus norvegicus) (UniProt P16257); assay: Displacement of [3H]PK 11195 from rat heart peripheral-type benzodiazepine receptor at 100 uM measured after 15 mins by scintillation counting method relative to control
[14] = target: D(3) dopamine receptor (Homo sapiens) (UniProt P35462); assay: Displacement of [3H]methyl-spiperone from human recombinant dopamine D3 receptor expressed in CHO cells at 100 uM measured after 60 mins by scintillation counting method relative to control; format: cell-based
CHO = assay: Displacement of [3H]methyl-spiperone from human recombinant dopamine D4.4 receptor expressed in CHO cells at 100 uM measured after 60 mins by scintillation counting method relative to control; format: cell-based
[15] = target: T1, C-X-C chemokine receptor type 2 (Homo sapiens) (UniProt P25025); assay: Displacement of [125I]IL-8 from human recombinant CXCR2 expressed in HEK293 cells at 100 uM measured after 60 mins by scintillation counting method relative to control; format: cell-based
T1 sequence (whole entry): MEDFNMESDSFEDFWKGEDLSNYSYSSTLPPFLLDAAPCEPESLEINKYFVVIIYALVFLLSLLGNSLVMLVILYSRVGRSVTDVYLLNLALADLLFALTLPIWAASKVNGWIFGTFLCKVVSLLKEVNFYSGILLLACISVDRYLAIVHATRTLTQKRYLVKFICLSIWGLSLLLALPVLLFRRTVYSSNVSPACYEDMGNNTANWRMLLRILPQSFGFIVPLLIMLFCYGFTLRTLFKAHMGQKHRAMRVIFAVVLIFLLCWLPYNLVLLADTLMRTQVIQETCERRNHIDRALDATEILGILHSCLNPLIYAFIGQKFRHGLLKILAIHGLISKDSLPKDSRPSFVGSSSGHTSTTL

[16] = target: T2, Muscarinic acetylcholine receptor M4 (Homo sapiens) (UniProt P08173); assay: Displacement of [3H]4-DAMP from human recombinant M4 receptor expressed in CHO cells at 100 uM measured after 60 mins by scintillation counting method relative to control; format: cell-based
T2 sequence (whole entry): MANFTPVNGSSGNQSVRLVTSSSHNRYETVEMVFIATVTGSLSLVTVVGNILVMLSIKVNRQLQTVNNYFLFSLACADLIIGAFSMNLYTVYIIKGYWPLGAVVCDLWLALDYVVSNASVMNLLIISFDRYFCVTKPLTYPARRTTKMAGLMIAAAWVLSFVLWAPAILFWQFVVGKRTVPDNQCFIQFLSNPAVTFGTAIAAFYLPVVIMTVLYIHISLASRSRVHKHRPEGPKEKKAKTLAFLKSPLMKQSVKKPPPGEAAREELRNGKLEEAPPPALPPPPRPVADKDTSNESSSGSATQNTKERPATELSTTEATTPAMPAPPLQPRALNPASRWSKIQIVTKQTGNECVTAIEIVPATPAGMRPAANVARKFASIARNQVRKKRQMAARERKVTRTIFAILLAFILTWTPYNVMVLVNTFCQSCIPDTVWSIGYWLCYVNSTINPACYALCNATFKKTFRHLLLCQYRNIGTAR

[17] = target: Substance-P receptor (Homo sapiens) (UniProt P25103); assay: Displacement of [125I]BH-SP from NK1 receptor in human U373MG cells at 100 uM measured after 30 mins by scintillation counting method relative to control; format: cell-based; conditions: U-373MG ATCC
[18] = target: T3, 5-hydroxytryptamine receptor 2C (Homo sapiens) (UniProt P28335); assay: Displacement of [3H]mesulergine from human recombinant 5HT2C receptor expressed in HEK293 cells at 100 uM measured after 120 mins by scintillation counting method relative to control; format: cell-based
T3 sequence (whole entry): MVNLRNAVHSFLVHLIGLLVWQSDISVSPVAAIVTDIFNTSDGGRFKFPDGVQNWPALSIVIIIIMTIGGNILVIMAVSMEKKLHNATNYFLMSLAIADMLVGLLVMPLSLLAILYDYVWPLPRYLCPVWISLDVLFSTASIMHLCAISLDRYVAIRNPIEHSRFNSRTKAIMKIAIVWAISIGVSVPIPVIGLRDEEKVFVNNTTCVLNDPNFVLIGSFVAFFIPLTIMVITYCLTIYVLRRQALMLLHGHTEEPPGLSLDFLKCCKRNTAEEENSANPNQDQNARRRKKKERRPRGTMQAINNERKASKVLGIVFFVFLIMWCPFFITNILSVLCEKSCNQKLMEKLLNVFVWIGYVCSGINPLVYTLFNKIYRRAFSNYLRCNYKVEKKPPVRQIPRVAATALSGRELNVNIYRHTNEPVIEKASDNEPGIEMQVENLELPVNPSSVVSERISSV

Rattus norvegicus [19] = species: Rattus norvegicus; assay: Displacement of [3H]batrachotoxinin from rat cerebral cortex sodium channel site 2 at 100 uM measured after 60 mins by scintillation counting method relative to control
[20] = target: Sodium-dependent noradrenaline transporter (Homo sapiens) (UniProt P23975); assay: Displacement of [3H]nisoxetine from human recombinant norepinephrine transporter expressed in CHO cells at 100 uM measured after 120 mins by scintillation counting method relative to control; format: cell-based
Chain of Sodium-dependent noradrenaline transporter (Homo sapiens) (P23975 whole entry): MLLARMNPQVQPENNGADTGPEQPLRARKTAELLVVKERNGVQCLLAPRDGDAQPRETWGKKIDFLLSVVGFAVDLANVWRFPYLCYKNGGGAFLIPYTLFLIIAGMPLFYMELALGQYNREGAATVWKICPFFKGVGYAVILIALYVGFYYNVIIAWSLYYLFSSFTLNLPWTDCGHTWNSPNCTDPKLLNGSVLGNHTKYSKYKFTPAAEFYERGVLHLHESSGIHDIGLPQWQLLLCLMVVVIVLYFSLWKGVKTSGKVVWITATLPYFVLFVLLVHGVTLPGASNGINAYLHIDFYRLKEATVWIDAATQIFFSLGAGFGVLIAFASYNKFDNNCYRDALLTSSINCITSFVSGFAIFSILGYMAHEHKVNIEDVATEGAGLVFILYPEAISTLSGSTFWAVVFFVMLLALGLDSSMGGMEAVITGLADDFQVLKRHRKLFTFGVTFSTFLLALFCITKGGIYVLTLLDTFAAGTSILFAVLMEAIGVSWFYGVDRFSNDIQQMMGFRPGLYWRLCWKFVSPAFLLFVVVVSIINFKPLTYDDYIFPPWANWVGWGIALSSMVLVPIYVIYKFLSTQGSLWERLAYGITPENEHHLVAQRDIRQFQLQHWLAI

Chain of D(3) dopamine receptor (Homo sapiens) (P35462 whole entry): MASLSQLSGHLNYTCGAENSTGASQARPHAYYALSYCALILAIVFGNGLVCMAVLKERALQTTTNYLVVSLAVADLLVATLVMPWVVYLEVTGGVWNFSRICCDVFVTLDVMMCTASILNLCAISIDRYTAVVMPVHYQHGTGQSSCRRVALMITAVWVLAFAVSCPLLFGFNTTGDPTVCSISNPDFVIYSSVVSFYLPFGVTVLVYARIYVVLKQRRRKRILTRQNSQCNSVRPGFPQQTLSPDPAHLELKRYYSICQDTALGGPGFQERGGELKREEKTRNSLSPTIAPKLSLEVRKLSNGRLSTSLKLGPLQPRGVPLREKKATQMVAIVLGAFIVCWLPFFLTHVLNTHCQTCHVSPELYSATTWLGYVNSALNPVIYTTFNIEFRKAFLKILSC
Chain of Adenosine receptor A2a (Homo sapiens) (P29274 whole entry): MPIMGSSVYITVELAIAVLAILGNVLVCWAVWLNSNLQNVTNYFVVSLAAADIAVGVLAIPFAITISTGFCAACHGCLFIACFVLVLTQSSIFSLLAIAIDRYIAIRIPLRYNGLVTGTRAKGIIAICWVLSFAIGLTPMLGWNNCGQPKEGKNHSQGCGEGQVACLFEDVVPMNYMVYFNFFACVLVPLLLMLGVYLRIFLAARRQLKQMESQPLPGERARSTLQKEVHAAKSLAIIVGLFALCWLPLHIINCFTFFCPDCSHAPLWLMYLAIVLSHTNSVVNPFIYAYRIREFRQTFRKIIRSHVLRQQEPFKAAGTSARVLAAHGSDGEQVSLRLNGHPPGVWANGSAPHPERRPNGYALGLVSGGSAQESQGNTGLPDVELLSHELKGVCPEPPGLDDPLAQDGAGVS
Chain of Substance-P receptor (Homo sapiens) (P25103 whole entry): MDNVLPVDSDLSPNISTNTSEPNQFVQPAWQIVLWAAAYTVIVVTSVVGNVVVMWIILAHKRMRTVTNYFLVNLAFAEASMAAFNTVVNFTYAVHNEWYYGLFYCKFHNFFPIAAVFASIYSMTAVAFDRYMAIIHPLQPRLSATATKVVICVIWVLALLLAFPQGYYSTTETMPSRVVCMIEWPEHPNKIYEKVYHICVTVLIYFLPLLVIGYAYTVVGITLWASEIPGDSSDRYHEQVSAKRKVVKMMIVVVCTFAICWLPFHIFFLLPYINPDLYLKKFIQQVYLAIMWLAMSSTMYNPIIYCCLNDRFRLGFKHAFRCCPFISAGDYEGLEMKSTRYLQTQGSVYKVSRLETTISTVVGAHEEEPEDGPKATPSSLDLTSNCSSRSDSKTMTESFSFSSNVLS
Chain of Translocator protein (Rattus norvegicus) (P16257 whole entry, looked up): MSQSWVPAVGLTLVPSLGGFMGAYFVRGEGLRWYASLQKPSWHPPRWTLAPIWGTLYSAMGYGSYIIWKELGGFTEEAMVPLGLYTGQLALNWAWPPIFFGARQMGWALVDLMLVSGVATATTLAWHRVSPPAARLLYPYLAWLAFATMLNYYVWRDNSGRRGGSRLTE

Row | SMILES | Activity (Mus musculus [1]) | Activity (Mus musculus [2]) | Activity (Rattus norvegicus [3]) | Activity (Rattus norvegicus [4]) | Time (Mus musculus [5]) | ED50 (Mus musculus [6]) | selectivity ratio [7] | selectivity ratio [8] | ED50 (Rattus norvegicus [9]) | TD50 [10] | selectivity ratio [11] | inhibition [12] | inhibition [13] | inhibition [14] | inhibition (CHO) | inhibition [15] | inhibition [16] | inhibition [17] | inhibition [18] | inhibition (Rattus norvegicus [19]) | further results
1 | Cc1ccccc1/C=C/C(=O)N[C@@H](C)CO | Active | Active | Non-Toxic | Non-Toxic | 0.25 h | 58.4 mg/kg | 2.86 | 3.55 | 25.8 mg/kg | 103 mg/kg | 6.3 | 3.8% | 75.8% | 7.2% | 23.2% | 21.9% | -3.2% | -5.7% | 81.2% | -2.3% | inhibition [20]: 30.4%
2 | CCC(CO)NC(=O)/C=C/c1ccc(Cl)cc1 (stereo not drawn) | Active | Active | Non-Toxic | Non-Toxic | 0.25 h | 90.3 mg/kg | 3.41 | 2.12 | 46.8 mg/kg | 79.5 mg/kg | 3.74 | 27.3% | 53% | 18.2% | 30.6% | 27.1% | 1.7% | 3% | 24.5% | 28.4% | inhibition [20]: 61.7%
3 | CC(O)CNC(=O)/C=C/c1ccc(Cl)cc1 (stereo not drawn) | Active | Active | Non-Toxic | Non-Toxic | 0.5 h | 102 mg/kg | 4.26 | 3.51 | 77.3 mg/kg | 69.8 mg/kg | 1.66 | 25.2% | 8.1% | 17.4% | 28.2% | 27% | 8.9% | 3.1% | 23.4% | 10.2% | inhibition [20]: 48.1%
